Measured values: US20090156582A1, “Pyrazole Compound” (priority 2005, published 2009)

Test system: nerve cell prepared from cerebral cortex of fetus of SD rat
Assay: Measurement of nerve cell death suppressive activity
Assay type: cell-based
Conditions: rat cerebral cortex nerve cells, LY294002 50 μM final concentration, 24 hr, viable cell number by Cell Titer Glo; read-out: IC50 value (concentration of the test compound needed for 50% inhibition of nerve cell death)
Description: The cerebral cortex was taken from fetus of TP-14 pregnant SD rat (CLEA Japan, Inc.), and nerve cell was prepared using nerve cell culture system (SUMITOMO BAKELITE). The cerebral cortex was placed in enzymatic solution of cell dispersion solution kit (SUMITOMO BAKELITE), and incubated at 37° C. for 30 min. The cells were suspended by pipetting, and collected by centrifugation at 1000 rpm for 5 min. The supernatant was removed, and cell dispersion solution (SUMITOMO BAKELITE) was added. The cells were suspended by pipetting. The cell suspension was placed on removing solution (SUMITOMO BAKELITE), and the cells were collected by centrifugation at 1000 rpm for 5 min. The supernatant was removed, and the cells were suspended in nerve cell culture medium (SUMITOMO BAKELITE). 100 μl of the suspension was seeded on a poly D lysine•laminin 96 well plate (Becton, Dickinson and Company) at 1×10^5 cells/well. Then, the plate was cultured in a carbon dioxide gas incubator at 37° C. for 4 days. A test compound (50 μl) was added on the 96 well plate, and 50 μL/well of LY294002 was added at 50 μM of the final concentration. Then, the plate was cultured in a carbon dioxide gas incubator for 24 hr. The medium (100 μl) was sampled, and 100 μl of Cell Titer Glo solution (Promega) was added to count the viable cell number. […]

Question: With `O=C(Nc1c[nH]nc1C(=O)Nc1ccccc1)c1cnccn1` [Example 98, N-{3-[(phenylamino)carbonyl]-1H-pyrazol-4-yl}pyrazine-2-carboxamide] as the molecule, how does the IC50 read?
Answer: Its IC50 is 440 nM.

Question: With `O=C(Nc1c[nH]nc1C(=O)NC1CCCC1)c1cnccn1` [Example 79, N-{3-[(cyclopentylamino)carbonyl]-1H-pyrazol-4-yl}pyrazine-2-carboxamide] as the molecule, how does the IC50 read?
Answer: The IC50 was 70 nM.
